Data published in patent US12617767B2, “Crystalline forms of somatostatin modulators” (Crinetics Pharmaceuticals, Inc., priority 2019, dated 2026).

Assay: Karl-Fischer titration for water determination
Format: physicochemical
Conditions: dimesylate
Method: Karl-Fischer titration for water determination was done using a Mettler Toledo C20S Coulometric KF Titrator equipped with a current generator cell with a diaphragm, and a doubleplatinum-pin electrode. Aquastar™ CombiCoulomat fritless reagent was used in both the anode and cathode compartments. Samples of approximately 0.03-0.10 g were dissolved in the anode compartment and titrated until the solution potential dropped below 100 mV. Hydranal 1 wt. % water standard is used for validation prior to sample analysis.

Water Content: 4.2% w/w
SMILES: CS(=O)(=O)O.CS(=O)(=O)O.N#Cc1cccc(-c2ccc3ncc(-c4cc(F)cc(F)c4)c(N4CCC(N)CC4)c3c2)c1O [Pattern B, 3-(4-(4-aminopiperidin-1-yl)-3-(3,5-difluorophenyl)quinolin-6-yl)-2-hydroxybenzonitrile dimesylate]
